Earlier results on 5 compounds are cited in patent publication US11938211B2, “Process for coloring keratinous material comprising the use of an organosilicon compound, an effect pigment, a further coloring compound and a film-forming polymer I” (Henkel AG & Co. KGaA, priority 2019, dated 2024).

The conditions of the data set: 25° C.

For `O=S(=O)([O-])c1ccc(N=Nc2c(O)ccc3ccccc23)cc1.[Na+]` [Acid Orange 7, sodium salt of 4-[(2-hydroxy-1-naphthyl)azo]benzene sulphonate], the solubility in water result was “more than 7 g/L”.

Consider `O=C([O-])c1c(Cl)c(Cl)c(Cl)c(Cl)c1-c1c2c(Br)cc(=O)c(Br)c-2oc2c(Br)c(O)cc(Br)c12.O=C([O-])c1c(Cl)c(Cl)c(Cl)c(Cl)c1-c1c2c(Br)cc(=O)c(Br)c-2oc2c(Br)c(O)cc(Br)c12.[Na+].[Na+]` [Acid Red 92, disodium salt of 3,4,5,6-tetrachloro-2-(1,4,5,8-tetrabromo-6-hydroxy-3-oxoxanthen-9-yl)benzoic acid], for which the solubility in water entry is on record as “greater than 10 g/L”.

For the compound `O=C([O-])C1=NN(c2ccc(S(=O)(=O)[O-])cc2)C(=O)C1N=Nc1ccc(S(=O)(=O)[O-])cc1.[Na+].[Na+].[Na+]` (centres unmarked) [Acid Yellow 23, trisodium salt of 4,5-dihydro-5-oxo-1-(4-sulfophenyl)-4-((4-sulfophenyl)azo)-1H-pyrazole-3-carboxylic acid], the “solubility in water (in words)” value is reported as “highly soluble”.

`CCN(Cc1cccc(S(=O)(=O)[O-])c1)c1ccc(C(=C2C=CC(=[N+](CC)Cc3cccc(S(=O)(=O)[O-])c3)C=C2)c2ccccc2S(=O)(=O)[O-])cc1.[Na+].[Na+]` [Acid Blue 9]: the solubility in water entry is recorded as “more than 20 % by weight”.

With `Nc1cc(S(=O)(=O)[O-])cc2cc(S(=O)(=O)[O-])c(N=Nc3ccccc3)c(O)c12.[Na+].[Na+]` [Acid Red 33, disodium salt of 5-amino-4-hydroxy-3-(phenylazo)-naphthalene-2,7-disulphonate], the solubility in water is 2500 µg/mL.
